Test results reported in patent US12538923B2, “Herbicidal compositions comprising imazethapyr” (BASF SE, priority 2024, dated 2026).

Tests used:
Assay type in all cases: in vivo
[1] = tested on: Amaranthus cruentus (AMACR); assay: Post-emergence field trial, herbicidal activity on AMACR; details: height 20-25 cm, 25 DAT, 0.25 l/ha Dash MSO Max
Method: (§1) In the examples below, using the method of S. R. Colby (1967) “Calculating synergistic and antagonistic responses of herbicide combinations”, Weeds 15, p. 22ff., the value E, which is expected if the activity of the individual active compounds is only additive, was calculated:
(§2) [formula] • where • X=percent activity using active herbicide A at an application rate a; • Y=percent activity using active herbicide B (e.g. imazethapyr) at an application rate b; • E=expected activity (in %) by A+B at application rates a+b.
(§3) If the value found experimentally is higher than the value E calculated according to Colby, a synergistic effect is present.
(§4) On field test sites, natural weed infestation or seeded weeds were treated post-emergence of the weeds.
(§5) In the field trials, the weeds were treated as indicated below.
(§6) In the following experiments, the herbicidal activity for the individual herbicidal compositions (solo and mixture applications) was assessed at the indicated days after treatment (DAT). The assessments for the damage on undesired weeds caused by the composition was carried out using a scale from 0 to 100%, compared to the untreated control plants. Here, 0 means no damage and 100 means complete destruction of the plants. […]

Eleusine indica (ELEIN) = assay: Post-emergence field trial, herbicidal activity on ELEIN; details: 21 DAT
Method: as §1, §2, §3, §4, §5
(§7) In the following experiments, the herbicidal activity for the individual herbicidal compositions (solo and mixture applications) was assessed at the indicated days after treatment (DAT). The assessments for the damage on undesired weeds caused by the composition was carried out using a scale from 0 to 100%, compared to the untreated control plants. Here, 0 means no damage and 100 means complete destruction of the plants.
(§8) Herbicide A-1 (342 g/l) and imazethapyr-ammonium were, together with addition of 0.5% MSO (methylated seed oil) as adjuvant, formulated in water as distribution medium (water volume […]) and sprayed with commercial flat fan nozzles.

[2] = tested on: Brachiaria plantaginea (BRAPL); assay: Post-emergence field trial, herbicidal activity on BRAPL; details: for % herbicidal activity: Table 2.5, 21 DAT, growth stage 24
Method: as §1, §2, §3, §4, §5, §7, §8

Ipomoea triloba (IPOTR) = assay: Post-emergence field trial, herbicidal activity on IPOTR; details: 21 DAT
Method: as §1, §2, §3, §4, §5, §7, §8

[3] = tested on: Euphorbia heterophylla (EPHHL); assay: Post-emergence field trial, herbicidal activity on EPHHL; details: 21 DAT
Method: as §1, §2, §3, §4, §5, §7, §8

[4] = tested on: Amaranthus hybridus (AMACH); assay: Post-emergence field trial, herbicidal activity on AMACH
Method: as §1, §2, §3, §4, §5, §7
Herbicide A-1 (342 g/I) and imazethapyr-ammonium were, together with addition of 0.25 l/ha Dash® MSO Max as adjuvant, formulated in water as distribution medium (water volume 200 l/ha) and sprayed with commercial flat fan nozzles.

[5] = tested on: Digitaria horizontalis (DIGHO); assay: Post-emergence field trial, herbicidal activity on DIGHO; details: Table 2.5, 21 DAT, growth stage 24
Method: as §1, §2, §3, §4, §5, §6

[6] = tested on: Amaranthus viridis (AMAVI); assay: Post-emergence field trial, herbicidal activity on AMAVI; details: growth stage 16-18, height 10-15 cm, 20 DAT, 0.5% MSO
Method: as §1, §2, §3, §4, §5, §7, §8

[7] = tested on: Spermacoce latifolia (BOILF); assay: Post-emergence field trial, herbicidal activity on BOILF; details: 21 DAT
Method: as §1, §2, §3, §4, §5, §7, §8

[8] = tested on: Galinsoga parviflora (GASPA); assay: Post-emergence field trial, herbicidal activity on GASPA; details: Table 2.6, 21 DAT, weed height 15-35 cm
Method: as §1, §2, §3, §4, §5, §6

[9] = tested on: Portulaca oleracea (POROL); assay: Post-emergence field trial, herbicidal activity on POROL; details: growth stage 14-16, height 5-10 cm, 20 DAT, 0.5% MSO
Method: as §1, §2, §3, §4, §5, §6

[10] = tested on: Digitaria insularis (DIGIN); assay: Post-emergence field trial, herbicidal activity on DIGIN; details: Table 2.4, 21 DAT, weed height 20-40 cm
Method: as §1, §2, §3, §4, §5, §6

In the case of `CCOC(=O)COc1ccccc1Oc1nc(-n2c(=O)cc(C(F)(F)F)n(C)c2=O)c(F)cc1Cl` [Herbicide A-1, ethyl 2-[2-[[3-chloro-5-fluoro-6-[3-methyl-2,6-dioxo-4-(trifluoromethyl)pyrimidin-1-yl]-2-pyridyl]oxy]phenoxy]acetate], the “% herbicidal activity A-1” value ([1]; A-1 25 g ai/ha solo) is reported as 93%, the “% herbicidal activity A-1” value (Eleusine indica (ELEIN); ELEIN, height 20-25 cm, A-1 25 g ai/ha solo, 0.5% MSO) is reported as 45% and the “% herbicidal activity” value (Eleusine indica (ELEIN); Table 2.7, A-1 50 g ai/ha alone, growth stage 35-61, height 3-5 cm) is reported as 87%. The “% herbicidal activity” value (Eleusine indica (ELEIN); Table 3.2, A-1 50 g ai/ha alone, weed height 20-25 cm) was 55%, the “% herbicidal activity A-1” value ([2]; BRAPL, growth stage 21-25, height 10-15 cm, A-1 50 g ai/ha solo, 20 DAT, 0.5% MSO) was 73% and the “% herbicidal activity” value ([2]; A-1 25 g ai/ha alone) was 83%. The “% herbicidal activity” value ([2]; A-1 50 g ai/ha alone) was 93%, the “% herbicidal activity A-1” value (Ipomoea triloba (IPOTR); IPOTR, growth stage 35, A-1 25 g ai/ha solo, 0.5% MSO) was 61% and the “% herbicidal activity” value (Ipomoea triloba (IPOTR); Table 3.1, A-1 25 g ai/ha alone, growth stage 35) was 61%. The “% herbicidal activity A-1” value ([3]; EPHHL, growth stage 35, A-1 50 g ai/ha solo, 0.5% MSO) was 86%, the “% herbicidal activity” value ([3]; Table 2.6, A-1 50 g ai/ha alone, weed height 15-35 cm) was 96% and the “% herbicidal activity” value ([3]; Table 2.7, A-1 25 g ai/ha alone, growth stage 18-65, height 5-15 cm) was 94%. The “% herbicidal activity A-1” value ([4]; AMACH, height 20-25 cm, A-1 25 g ai/ha solo, 25 DAT, 0.25 l/ha Dash MSO Max) was 91%, the “% herbicidal activity” value ([4]; Table 3.1, 21 DAT, A-1 50 g ai/ha alone, growth stage 35) was 85% and the “% herbicidal activity” value ([5]; A-1 50 g ai/ha alone) was 50%. The “% herbicidal activity A-1” value ([6]; A-1 25 g ai/ha solo) was 69%, the “% herbicidal activity A-1” value ([6]; A-1 50 g ai/ha solo) was 84% and the “% herbicidal activity A-1” value ([7]; BOILF, growth stage 40, A-1 25 g ai/ha solo, 0.5% MSO) was 81%. The “% herbicidal activity” value ([7]; Table 3.1, A-1 25 g ai/ha alone, growth stage 40) was 81%, the “% herbicidal activity” value ([8]; A-1 50 g ai/ha alone) was 92% and the “% herbicidal activity A-1” value ([9]; A-1 50 g ai/ha solo) was 58%. The “% herbicidal activity” value ([10]; A-1 50 g ai/ha alone) was 38%.
With `CCc1cnc(C2=NC(C)(C(C)C)C(=O)N2)c(C(=O)O)c1.N` (stereo not drawn) [Herbicide B-2, imazethapyr-ammonium, reference compound] the “% herbicidal activity B-2” value ([1]; B-2 100 g ai/ha solo) was 58%, the “% herbicidal activity B-2” value (Eleusine indica (ELEIN); ELEIN, height 20-25 cm, B-2 100 g ai/ha solo, 0.5% MSO) was 0% and the “% herbicidal activity” value (Eleusine indica (ELEIN); Table 2.7, B-2 100 g ai/ha alone, growth stage 35-61, height 3-5 cm) was 10%. For the same molecule, the “% herbicidal activity B-2” value ([2]; BRAPL, growth stage 21-25, height 10-15 cm, B-2 100 g ai/ha solo, 20 DAT, 0.5% MSO) was 0%, the “% herbicidal activity” value ([2]; B-2 100 g ai/ha alone, listed as with A-1 25 g ai/ha) was 0% and the “% herbicidal activity” value ([2]; B-2 100 g ai/ha alone, listed as with A-1 50 g ai/ha) was 0%. For the same molecule, the “% herbicidal activity B-2” value (Ipomoea triloba (IPOTR); IPOTR, growth stage 35, B-2 100 g ai/ha solo, 0.5% MSO) was 22%, the “% herbicidal activity B-2” value ([3]; EPHHL, growth stage 35, B-2 100 g ai/ha solo, 0.5% MSO) was 10% and the “% herbicidal activity” value ([3]; Table 2.6, B-2 100 g ai/ha alone, weed height 15-35 cm) was 0%. For the same molecule, the “% herbicidal activity” value ([3]; Table 2.7, B-2 100 g ai/ha alone, growth stage 18-65, height 5-15 cm) was 20%, the “% herbicidal activity B-2” value ([4]; AMACH, height 20-25 cm, B-2 100 g ai/ha solo, 25 DAT, 0.25 l/ha Dash MSO Max) was 7% and the “% herbicidal activity” value ([5]; B-2 100 g ai/ha alone) was 0%. The “% herbicidal activity B-2” value ([6]; B-2 100 g ai/ha solo) was 22%, the “% herbicidal activity B-2” value ([7]; BOILF, growth stage 40, B-2 100 g ai/ha solo, 0.5% MSO) was 23% and the “% herbicidal activity” value ([8]; B-2 100 g ai/ha alone) was 0%. The “% herbicidal activity B-2” value ([9]; B-2 100 g ai/ha solo) was 30% and the “% herbicidal activity” value ([10]; B-2 100 g ai/ha alone) was 13%.
